Laboratory results as given in patent US20060134102A1, “Lymphotoxin beta receptor agents in combination with chemotherapeutic agents” (Biogen Idec MA Inc., priority 2002, published 2006).

Tested on: KM-20L2 human colorectal adenocarcinoma
Assay: KM-20L2 xenograft model: growth of established KM-20L2 human colorectal tumors in athymic nude mice (tumor volume/weight, % T/C, Fa, Combination Index)
Type: in vivo

Nc1ccn([C@@H]2O[C@H](CO)[C@@H](O)C2(F)F)c(=O)n1 [Gemcitabine, gemcitabine, reference compound]
Mean Tumor Volume (Gem 10 mg/kg, Day 37): 723.7 cubic mm | Mean Tumor Volume Decrease (Gem 10 mg/kg, Day 37): 484.3 cubic mm | Mean Fraction Affected (Fa) (Gem 10 mg/kg, Day 41): 0.399 | Mean Fraction Affected/Fraction Unaffected (Fa/Fu) (Gem 10 mg/kg, Day 41): 0.664 | Mean Tumor Volume (Gem 10 mg/kg, Day 41): 865.2 cubic mm | Mean Tumor Volume Decrease (Gem 10 mg/kg, Day 41): 574.2 cubic mm | Mean Fraction Affected (Fa) (Gem 10 mg/kg, Day 43): 0.393 | Mean Fraction Affected/Fraction Unaffected (Fa/Fu) (Gem 10 mg/kg, Day 43): 0.647 | Mean Tumor Volume (Gem 10 mg/kg, Day 43): 975.7 cubic mm | Mean Tumor Volume Decrease (Gem 10 mg/kg, Day 43): 631.0 cubic mm | Mean Fraction Affected (Fa) (Gem 20 mg/kg, Day 9): 0.053 | Mean Fraction Affected/Fraction Unaffected (Fa/Fu) (Gem 20 mg/kg, Day 9): 0.056 | Mean Tumor Volume (Gem 20 mg/kg, Day 9): 105.9 cubic mm | Mean Tumor Volume Decrease (Gem 20 mg/kg, Day 9): 5.9 cubic mm | Mean Fraction Affected (Fa) (Gem 20 mg/kg, Day 13): 0.357 | Mean Fraction Affected/Fraction Unaffected (Fa/Fu) (Gem 20 mg/kg, Day 13): 0.555 | Mean Tumor Volume (Gem 20 mg/kg, Day 13): 111.0 cubic mm | Mean Tumor Volume Decrease (Gem 20 mg/kg, Day 13): 61.6 cubic mm | Mean Fraction Affected (Fa) (Gem 20 mg/kg, Day 16): 0.623 | Mean Fraction Affected/Fraction Unaffected (Fa/Fu) (Gem 20 mg/kg, Day 16): 1.655 | Mean Tumor Volume (Gem 20 mg/kg, Day 16): 99.8 cubic mm | Mean Tumor Volume Decrease (Gem 20 mg/kg, Day 16): 165.2 cubic mm | Mean Fraction Affected (Fa) (Gem 20 mg/kg, Day 20): 0.748 | Mean Fraction Affected/Fraction Unaffected (Fa/Fu) (Gem 20 mg/kg, Day 20): 2.966 | Mean Tumor Volume (Gem 20 mg/kg, Day 20): 101.1 cubic mm | Mean Tumor Volume Decrease (Gem 20 mg/kg, Day 20): 299.9 cubic mm | Mean Fraction Affected (Fa) (Gem 20 mg/kg, Day 23): 0.721 | Mean Fraction Affected/Fraction Unaffected (Fa/Fu) (Gem 20 mg/kg, Day 23): 2.579 | Mean Tumor Volume (Gem 20 mg/kg, Day 23): 147.3 cubic mm | Mean Tumor Volume Decrease (Gem 20 mg/kg, Day 23): 379.9 cubic mm | Mean Fraction Affected (Fa) (Gem 20 mg/kg, Day 27): 0.663 | Mean Fraction Affected/Fraction Unaffected (Fa/Fu) (Gem 20 mg/kg, Day 27): 1.970 | Mean Tumor Volume (Gem 20 mg/kg, Day 27): 225.1 cubic mm | Mean Tumor Volume Decrease (Gem 20 mg/kg, Day 27): 443.5 cubic mm | Mean Fraction Affected (Fa) (Gem 20 mg/kg, Day 30): 0.605 | Mean Fraction Affected/Fraction Unaffected (Fa/Fu) (Gem 20 mg/kg, Day 30): 1.530 | Mean Tumor Volume (Gem 20 mg/kg, Day 30): 322.6 cubic mm | Mean Tumor Volume Decrease (Gem 20 mg/kg, Day 30): 493.6 cubic mm | Mean Fraction Affected (Fa) (Gem 20 mg/kg, Day 34): 0.578 | Mean Fraction Affected/Fraction Unaffected (Fa/Fu) (Gem 20 mg/kg, Day 34): 1.371 | Mean Tumor Volume (Gem 20 mg/kg, Day 34): 443.0 cubic mm | Mean Tumor Volume Decrease (Gem 20 mg/kg, Day 34): 607.3 cubic mm | Mean Fraction Affected (Fa) (Gem 20 mg/kg, Day 37): 0.568 | Mean Fraction Affected/Fraction Unaffected (Fa/Fu) (Gem 20 mg/kg, Day 37): 1.314 | Mean Tumor Volume (Gem 20 mg/kg, Day 37): 522.1 cubic mm | Mean Tumor Volume Decrease (Gem 20 mg/kg, Day 37): 685.9 cubic mm | Mean Fraction Affected (Fa) (Gem 20 mg/kg, Day 41): 0.532 | Mean Fraction Affected/Fraction Unaffected (Fa/Fu) (Gem 20 mg/kg, Day 41): 1.135 | Mean Tumor Volume (Gem 20 mg/kg, Day 41): 674.3 cubic mm | Mean Tumor Volume Decrease (Gem 20 mg/kg, Day 41): 765.1 cubic mm | Mean Fraction Affected (Fa) (Gem 20 mg/kg, Day 43): 0.531 | Mean Fraction Affected/Fraction Unaffected (Fa/Fu) (Gem 20 mg/kg, Day 43): 1.134 | Mean Tumor Volume (Gem 20 mg/kg, Day 43): 753.0 cubic mm | Mean Tumor Volume Decrease (Gem 20 mg/kg, Day 43): 853.7 cubic mm | Median Effect Dose (Given Separately, Day 16): 14.1 mg/kg | Median Effect Dose (Given Separately, Day 20): 10.1 mg/kg | Median Effect Dose (Given Separately, Day 23): 10.8 mg/kg | Median Effect Dose (Given Separately, Day 27): 12.8 mg/kg | Median Effect Dose (Given Separately, Day 30): 14.1 mg/kg | Median Effect Dose (Given Separately, Day 34): 14.8 mg/kg | Median Effect Dose (Given Separately, Day 37): 15.0 mg/kg | Median Effect Dose (Given Separately, Day 41): 16.8 mg/kg | Median Effect Dose (Given Separately, Day 43): 16.9 mg/kg | Median Effect Dose (dose of the labelled agent when huCBE11 and Gemcitabine Combined (4:5), Day 16): 4.5 mg/kg | Median Effect Dose (dose of the labelled agent when huCBE11 and Gemcitabine Combined (4:5), Day 20): 1.7 mg/kg | Median Effect Dose (dose of the labelled agent when huCBE11 and Gemcitabine Combined (4:5), Day 23): 0.7 mg/kg | Median Effect Dose (dose of the labelled agent when huCBE11 and Gemcitabine Combined (4:5), Day 27): 0.9 mg/kg | Median Effect Dose (dose of the labelled agent when huCBE11 and Gemcitabine Combined (4:5), Day 30): 0.8 mg/kg | Median Effect Dose (dose of the labelled agent when huCBE11 and Gemcitabine Combined (4:5), Day 34): 0.8 mg/kg | Median Effect Dose (dose of the labelled agent when huCBE11 and Gemcitabine Combined (4:5), Day 37): 0.5 mg/kg | Median Effect Dose (dose of the labelled agent when huCBE11 and Gemcitabine Combined (4:5), Day 41): 0.7 mg/kg | Median Effect Dose (dose of the labelled agent when huCBE11 and Gemcitabine Combined (4:5), Day 43): 0.6 mg/kg | Activity by NCI criteria (% T/C of 42 or less) (gemcitabine): active | Inhibition of tumor growth vs vehicle control (gemcitabine 20 mg/kg Days 13-55, 10 mg/kg Days 16-55, 5 mg/kg Days 13-43, separate study): Significant inhibition of tumor growth | % T/C (gemcitabine 20 mg/kg, Day 16 through Day 34): ≤ 42% | % T/C (gemcitabine 25 mg/kg, Day 17 through Day 31): ≤ 42% | Inhibition of tumor growth vs saline control (gemcitabine 140, 100, 50 and 25 mg/kg, Day 10 to Day 41): Significant inhibition of tumor growth | % T/C (gemcitabine 140, 100 and 50 mg/kg, from Days 14 or 17 for the duration of the study): ≤ 42%
